Columns and labels:
Conditions in all cases: exposure time 48 h
[1] = test system: Caenorhabditis elegans N2; test: AC50 for larval growth inhibition (Hill fit); higher = less potent
Method in brief: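 After 48 h at 20°C in K-medium with killed OP50, 1% DMSO and 0.5–200 µM chemical, synchronised C. elegans N2 L1 larvae (50 per well, 96-well plates) were sized individually as extinction on a COPAS Biosort. These values were log-transformed and averaged per well, and wells with fewer than 10 worms were excluded. The AC50 was derived from a constrained Hill fit by weighted genetic-algorithm regression, and out-of-range values are censored.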

[2] = test system: Caenorhabditis elegans N2; test: lowest effective concentration for larval growth inhibition (size below effect threshold); higher = less potent
Method in brief: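 C. elegans N2 L1 larvae (50 per 96-well) were grown 48 h at 20°C in K-medium with killed bacteria, 1% DMSO and 0.5, 1, 5, 10, 50, 100 or 200 µM chemical. The Biosort measured per-worm extinction as size, and these were log-transformed into well means. The lowest effective concentration is the first dose where the plate-adjusted mean size drops under the 5.665 threshold and stays under it at higher doses.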

[3] = test system: Caenorhabditis elegans N2; test: mean nematode size ln(EXT) after 48 h, plate-adjusted (DMSO control set to 6) (ln(EXT), control-adjusted); higher = larger nematodes / less growth inhibition
Method in brief: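 Synchronised C. elegans N2 L1 larvae (50 per well, 4–6 wells per treatment) were grown for 48 h at 20°C in K-medium with killed OP50, 1% DMSO and 0.5–200 µM chemical. The Biosort measured each worm's extinction, and debris was removed by a growth model. Values were natural-logged and averaged per well. Mean size was then plate-adjusted by subtracting the vehicle control mean and adding 6.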

SMILES	AC50 for larval growth inhibition [1]	lowest effective concentration [2]	mean nematode size ln(EXT) (ln) ([3]; 0.5 µM)	mean nematode size ln(EXT) (ln) ([3]; 1 µM)	mean nematode size ln(EXT) (ln) ([3]; 5 µM)	mean nematode size ln(EXT) (ln) ([3]; 10 µM)	mean nematode size ln(EXT) (ln) ([3]; 50 µM)	mean nematode size ln(EXT) (ln) ([3]; 100 µM)	mean nematode size ln(EXT) (ln) ([3]; 200 µM)
CC/C(=N\OC/C=C/Cl)C1=C(O)CC(C2CCOCC2)CC1=O (stereo unspecified) [Tepraloxydim]	> 200 µM	200 µM	5.72	5.89	5.74	5.83	5.77	5.86	5.43
Cc1[nH]c(=O)n(C(C)(C)C)c(=O)c1Cl [Terbacil]	> 200 µM	200 µM	5.34	5.77	5.2	5.76	5.1	5.87	5.23
CCNc1nc(Cl)nc(NC(C)(C)C)n1 [Terbuthylazin]	> 200 µM	50 µM	6	5.99	5.96	5.95	5.65	5.58	5.22
FC(F)C(F)(F)OCC(Cn1cncn1)c1ccc(Cl)cc1Cl (stereo unspecified) [Tetraconazole]	48.5 µM	10 µM	5.81	5.97	5.98	5.65	4.91	4.36	4.07
CN(C)[C@@H]1C(=O)C(C(N)=O)=C(O)[C@@]2(O)C(=O)C3=C(O)c4c(O)cccc4[C@@](C)(O)[C@H]3C[C@@H]12 [Tetracycline]	103 µM	100 µM	6.03	6.08	6.03	6.05	6.06	5.64	4.89
CC(C)=CC1C(C(=O)OCN2C(=O)C3=C(CCCC3)C2=O)C1(C)C (stereo unspecified) [Tetramethrin]	78.6 µM	100 µM	5.94	5.96	6.03	6.01	5.76	4.97	4.57
Cn1c(=O)c2nc[nH]c2n(C)c1=O [Theophylline]	> 200 µM	200 µM	5.97	5.97	5.98	6.02	5.84	5.9	5.59
c1ccc2[nH]c(-c3cscn3)nc2c1 [Thiabendazole]	> 200 µM	200 µM	6.04	6.23	6.02	5.98	5.78	5.93	4.91
COC(=O)c1c(C(F)F)nc(C(F)(F)F)c(C2=NCCS2)c1CC(C)C [Thiazopyr]	73.2 µM	50 µM	6.05	5.89	6	5.98	4.8	4.4	3.61
O=C(Nc1ccccc1)Nc1cnns1 [Thidiazuron]	> 200 µM	200 µM	6.05	6.18	6.1	5.93	6.01	5.89	4.8
CCN(CC)C(=O)SCc1ccc(Cl)cc1 [Thiobencarb]	51.1 µM	50 µM	5.97	5.98	5.97	5.95	5.44	4.48	4.48
CS/C(C)=N\OC(=O)N(C)SN(C)C(=O)O/N=C(\C)SC [Thiodicarb]	28.4 µM	5 µM	5.54	5.83	5.32	5.34	4.27	3.74	3.51
COC(=O)NC(=S)Nc1ccccc1NC(=S)NC(=O)OC [Thiophanate-methyl]	> 200 µM	200 µM	5.88	5.84	5.76	5.87	5.83	5.73	5.41
CN(C)C(=S)SSC(=S)N(C)C [Thiram]	48.9 µM	50 µM	6	6.02	6.06	6.13	5.55	5.36	5.13
CCO/N=C(\CC)C1=C(O)CC(c2c(C)cc(C)cc2C)CC1=O (stereo unspecified) [Tralkoxydim]	109 µM	200 µM	5.85	5.93	5.9	6.14	6.08	5.93	5.48
NC(=O)Cn1c(=O)cc(CCN2CCN(c3nccc4sccc34)CC2)c2ccc(F)cc21 [Trelanserin]	> 200 µM	200 µM	5.9	5.78	5.75	5.81	5.71	5.7	5.54
CCCCCCCCOC(=O)c1ccc(C(=O)OCCCCCCCC)c(C(=O)OCCCCCCCC)c1 [Tri (n-octyl) Trimellitate]	> 200 µM	200 µM	5.86	5.93	5.95	5.85	5.91	5.92	5.64
CC(C)N(C(=O)SCC(Cl)=C(Cl)Cl)C(C)C [Tri-allate]	86.7 µM	50 µM	5.72	5.91	5.86	5.9	5.39	4.62	3.99
CC(C)(C)C(=O)C(Oc1ccc(Cl)cc1)n1cncn1 (stereo unspecified) [Triadimefon]	> 200 µM	200 µM	5.76	5.75	5.57	5.71	5.98	5.91	5.36
CC(C)(C)C(O)C(Oc1ccc(Cl)cc1)n1cncn1 (stereo unspecified) [Triadimenol]	> 200 µM	200 µM	5.84	5.88	5.9	5.93	5.79	5.95	5.59
CCCCSP(=O)(SCCCC)SCCCC [Tribufos]	5.32 µM	5 µM	5.81	5.73	5.58	3.53	3.25	3.33	4.2
CCC[CH2][Sn]([Cl])([CH2]CCC)[CH2]CCC [Tributyltin chloride]	< 0.5 µM	≤ 0.5 µM	4.58	4.74	3.7	3.56	3.85	3.97	3.48

SMILES	AC50 for larval growth inhibition [1]	lowest effective concentration [2]	mean nematode size ln(EXT) (ln) ([3]; 0.5 µM)	mean nematode size ln(EXT) (ln) ([3]; 1 µM)	mean nematode size ln(EXT) (ln) ([3]; 5 µM)	mean nematode size ln(EXT) (ln) ([3]; 10 µM)	mean nematode size ln(EXT) (ln) ([3]; 50 µM)	mean nematode size ln(EXT) (ln) ([3]; 100 µM)	mean nematode size ln(EXT) (ln) ([3]; 200 µM)
COP(=O)(OC)C(O)C(Cl)(Cl)Cl (stereo unspecified) [Trichlorfon]	80.1 µM	5 µM	5.57	5.69	5.42	5.31	4.77	4.73	3.96
O=C(O)COc1nc(Cl)c(Cl)cc1Cl [Triclopyr]	156 µM	50 µM	6.07	6.1	6.13	6.08	5.61	5.48	4.06
Oc1cc(Cl)ccc1Oc1ccc(Cl)cc1Cl [Triclosan]	49.9 µM	10 µM	5.89	5.86	5.85	5.64	4.79	4.27	4
CCCCCCCCCCCCCN1CC(C)OC(C)C1 (stereo unspecified) [Tridemorph]	174 µM	100 µM	5.89	5.94	5.84	5.85	5.73	5.49	4.26
CCCCCCCCCCCCc1cccc(S(=O)(=O)O)c1 [Triethanolamine dodecylbenzene sulfonate]	50.5 µM	50 µM	5.43	5.59	5.54	5.69	5.03	4.02	4.04
COCCOCCOCCOC [Triethylene glycol dimethyl ether]	> 200 µM	200 µM	5.75	6.01	5.91	5.91	5.72	5.81	5.64
CO/N=C(/C(=O)OC)c1ccccc1CO/N=C(\C)c1cccc(C(F)(F)F)c1 [Trifloxystrobin]	90.8 µM	100 µM	5.88	5.87	5.71	5.82	5.92	4.16	3.43
COc1cc(OC)nc(NC(=O)NS(=O)(=O)c2ncccc2OCC(F)(F)F)n1 [Trifloxysulfuron-sodium]	196 µM	200 µM	5.81	5.77	6.02	5.88	5.9	5.97	5.51
CCCOC/C(=N\c1ccc(Cl)cc1C(F)(F)F)n1ccnc1 [Triflumizole]	21.3 µM	100 µM	5.97	6.09	4.54	6.04	5.95	4.88	3.47
CCCN(CCC)c1c([N+](=O)[O-])cc(C(F)(F)F)cc1[N+](=O)[O-] [Trifluralin]	53 µM	200 µM	5.85	6.06	6.05	6	5.03	6.06	3.63
O=c1n(CC2CO2)c(=O)n(CC2CO2)c(=O)n1CC1CO1 (stereo unspecified) [Triglycidyl isocyanurate]	> 200 µM	100 µM	5.88	5.83	5.84	5.89	5.86	5.42	5.65
O=P(Oc1ccccc1)(Oc1ccccc1)Oc1ccccc1 [Triphenyl phosphate]	20.5 µM	1 µM	5.84	5.63	5.25	4.99	4.17	3.78	3.66
O=P(OC(CCl)CCl)(OC(CCl)CCl)OC(CCl)CCl [Tris(1,3-dichloro-2-propyl) phosphate (TDCPP)]	117 µM	50 µM	5.85	5.86	5.83	5.77	5.39	4.98	3.63
CCCCC(CC)COC(=O)c1ccc(C(=O)OCC(CC)CCCC)c(C(=O)OCC(CC)CCCC)c1 (stereo unspecified) [Tris(2-ethylhexyl)trimellitate]	> 200 µM	200 µM	5.91	5.93	5.94	5.81	5.93	5.87	5.53
CC1(C)CC/C(=C\c2ccc(Cl)cc2)C1(O)Cn1cncn1 (stereo unspecified) [Triticonazole]	120 µM	200 µM	5.82	5.72	6.07	5.84	5.91	5.68	5.25
Cc1c(C)c2c(c(C)c1O)CCC(C)(COc1ccc(CC3SC(=O)NC3=O)cc1)O2 (stereo unspecified) [Troglitazone]	47.7 µM	50 µM	5.7	5.77	5.66	5.69	4.39	4.11	3.59
CCCCCCCCCCC [Undecane]	> 200 µM	200 µM	5.95	5.92	5.86	5.83	5.86	5.9	5.57
C=CC1(C)OC(=O)N(c2cc(Cl)cc(Cl)c2)C1=O (stereo unspecified) [Vinclozolin]	1.18 µM	1 µM	5.76	5.01	3.56	3.46	3.32	3.11	3.61
CC(=O)CC(c1ccccc1)c1c(O)c2ccccc2oc1=O (stereo unspecified) [Warfarin]	> 200 µM	200 µM	5.8	5.94	5.97	5.89	5.91	5.81	5.59
c1ccc(C(O[C@@H]2CCCN(CCc3ccc4c(c3)OCO4)C2)c2ccccc2)cc1 [Zamifenacin]	70.4 µM	10 µM	5.83	5.81	5.73	5.55	4.99	4.17	3.31
O=C(O)Cn1c(=O)n(Cc2ccc(Br)cc2F)c(=O)c2ccc(Cl)cc21 [Zenarestat]	> 200 µM	200 µM	5.91	5.87	5.84	6.11	5.77	5.77	5.4
C[C@]12CC[C@@H]3c4ccc(O)cc4CC[C@H]3[C@@H]1CC[C@@H]2O [beta-Estradiol]	188 µM	200 µM	5.85	5.81	5.8	5.84	5.75	5.94	5.2

Reference: the supplement of paper PMC4858399
